Data from patent US11412737B2, “Mixtures of beflubutamid or optically enriched forms thereof with a second herbicide” (FMC Corporation, priority 2016, dated 2022).
“And” between values parts separate entries of the source, which are not always exact repeats. Equal entries are not always repeated.

What was measured:
Hemp sesbania (SEHE8) = experiment: pre-emergence test, weed control; assay type: in vivo; conditions: pre-emergent, 28 DAT; BFL at 187.5 g, PYX at 90 g, combination of both
Experimental: (§1) Test compositions containing the test compounds were diluted with water to provide the appropriate test rate concentrations.
(§2) For pre-emergence testing, four disposable fiber flats (6 inch by 10 inch) for each rate of application of each herbicide solution were filled with top soil, to which seeds of each species were planted in furrows made by a template pressed on the top of the soil. The furrows were covered with soil after planting the seed and were watered well before application of the test compounds.
(§3) Fiber flats designated for treatment were placed in a spray chamber having a static platform and a movable sprayer and the height of the spray nozzle was 10.5 inches above the soil level. Once the sprayer was calibrated using water for spray volume of 30 gallons per acre, flats were sprayed with sprayer at a speed to receive a coverage equivalent of 30 gallons per acre. The application rates are those shown in the Tables below for the individual herbicidal solutions and the herbicide compositions of this invention. The pre-emergence flats were immediately placed in the greenhouse and watered lightly after treatment. Thereafter they were regularly watered and fertilized for the duration of the test.
(§4) The control of weeds was evaluated in each experimental test at 21 for wheat and 28 days after treatment (DAT) for all species. Data were analyzed using Minitab software at 95% confidence interval. The results, shown as an average of the replications, were compared with results observed in untreated control flats in the same tests. Percent control was determined by a method similar to the 0 to 100 rating system disclosed in “Research Methods in Weed Science,” 2nd ed., B. Truelove, Ed.; Southern Weed Science Society; Auburn University, Auburn, Ala., 1977. The rating system is as follows in Table 1.

velvetleaf (IPOHE) = experiment: pre-emergence test, weed control; assay type: in vivo; conditions: pre-emergent, 21 DAT, rate g ai/ha by row: r4 94, r5 125, r6 250, r7 125, r8 250, r9 500, r10 94+125, r11 125+125, r12 94+250, r13 125+250, r14 94+500, r15 125+500
Experimental: as §1, §2, §3, §4

Large crabgrass (DIGSA) = experiment: pre-emergence test, weed control; assay type: in vivo; conditions: pre-emergent, 28 DAT; rate g ai/ha by row: r4 94, r5 50, r6 100, r7 52.5, r8 70, r9 94+52.5, r10 94+70, r11 50+52.5, r12 50+70, r13 100+52.5, r14 100+70
Experimental: as §1, §2, §3, §4

Rice flatsedge (CYPIR) = experiment: pre-emergence test, weed control; assay type: in vivo; conditions: pre-emergent, 28 DAT; rate g ai/ha by row: r5 94, r6 125, r7 250, r8 3.28, r9 6.56, r10 13.1, r11 94+3.28, r12 94+6.56, r13 94+13.1, r14 125+3.28, r15 125+6.56, r16 125+13.1
Experimental: as §1, §2, §3, §4

Common chickweed (STEME) = experiment: post-emergence test, weed control; assay type: in vivo, Stellaria media; conditions: post-emergent, 28 DAT
Experimental: as §1
(§5) For post-emergence testing, seeds of each species for each rate of application of each herbicide solution were planted in 7.5 cm×7.5 cm plastic pots filled with potting soil. The seeds were germinated and the resulting plants were allowed to grow in a greenhouse until they reached a growth stage, such as height, suitable for testing. […] Pots of post-emergent treated plants were returned to the greenhouse and not watered for 24 hours after treatment. Thereafter they were regularly watered and fertilized for the duration of the test.
(§6) The control of weeds was evaluated in each experimental test at 21 for wheat and 28 days after treatment (DAT) for all species. […] The rating system is as follows in Table 1.

beggerticks (BIDPI) = experiment: post-emergence test, weed control; assay type: in vivo, Bidens pilosa; conditions: post-emergent, 28 DAT, COC 1%, rate g ai/ha by row: r5 94, r6 125, r7 250, r8 1.25, r9 2.5, r10 5, r11 94+1.25, r13 125+1.25, r15 94+2.5, r17 125+2.5, r19 94+5, r21 125+5
Experimental: as §1, §5, §6

Yellow foxtail (SETLU) = experiment: pre-emergence test, weed control; assay type: in vivo; conditions: pre-emergent, 28 DAT, (−)-BFL >95% e.e., rate g ai/ha by row: r6 62, r7 125, r8 125, r9 250, r10 445, r11 890, r12 45, r13 90, r14 62+125, r15 125+125, r16 62+250, r17 125+250, r18 62+445, r19 125+445, r20 62+890, r21 125+890, r22 62+45, r23 125+45, r24 62+90, r25 125+90
Experimental: as §1, §2, §3, §4

[1] = test system: Marestail (horsetail) (ERICA); experiment: post-emergence test, weed control; assay type: in vivo; conditions: post-emergent, 28 DAT, height 1 cm (3-5 rosette); rate g ai/ha by row: r25 94, r26 125, r27 188, r28 125, r29 250, r30 94+125, r31 125+125, r32 188+125, r33 94+250, r34 125+250, r35 188+250

SMILES	control of hemp sesbania (Hemp sesbania (SEHE8))	percentage of weed control, Morningglory IPOHE (velvetleaf (IPOHE); 94 g ai/ha)	percentage of weed control, Morningglory IPOHE (velvetleaf (IPOHE); 250 g ai/ha)	percentage of weed control, DIGSA (Large crabgrass (DIGSA))	percentage of weed control, Rice flatsedge CYPIR (Rice flatsedge (CYPIR))	percentage of weed control, Common chickweed STEME (Common chickweed (STEME); COC 1%, rate g ai/ha by row: r5 94, r6 125, r7 250, r8 1.25, r9 2.5, r10 5, r11 94+1.25, r13 125+1.25, r15 94+2.5, r17 125+2.5, r19 94+5, r21 125+5)	control of common chickweed (Common chickweed (STEME); BFL at 187.5 g, PYX at 45 g, combination of both)	percentage of weed control, Beggerticks BIDPI (beggerticks (BIDPI); BFL at 94 g ai/ha)	percentage of weed control, Beggerticks BIDPI (beggerticks (BIDPI); BFL at 125 g ai/ha)	percentage of weed control, SETLU (Yellow foxtail (SETLU); 125 g ai/ha)	percentage of weed control, SETLU (Yellow foxtail (SETLU); 250 g ai/ha)	percentage of weed control, ERICA [1]
CCC(Oc1ccc(F)c(C(F)(F)F)c1)C(=O)NCc1ccccc1 (racemic) [BFL, 2-[4-fluoro-3-(trifluoromethyl)phenoxy]-N-(phenylmethyl)butanamide]	28%	10%	8%	25%	71% and 88% and 100%	5%	16%	5%	10%	–	–	–
CC1(C)CON(Cc2ccc(Cl)cc2Cl)C1=O [DCI, 2-(2,4-dichlorophenyl)methyl-4,4-dimethyl-3-isoxazolidinone]	–	–	–	–	–	–	–	–	–	75%	96%	0%
